# Data taken from PubChem BioAssay (NCI).
# Several values for one entry are separate records, joined by “and”; a condition that tells them apart may be missing. Equal entries are not always repeated.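 Values below derive from 48-hour exposures of cells grown in 96-well plates, with endpoints linearly interpolated between the two concentrations bracketing the appropriate inhibition level. Here, GI50 denotes the concentration required for 50% inhibition of growth. TGI: total growth inhibition.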 Where a SMILES comes first, the peptide text is derived from it. [ ]: non-standard residue; d: D form. The star is where a group is joined. ξ: configuration not given here. ξPhe(4-NO2) = NC(Cc1ccc([N+](=O)[O-])cc1)C(=O)O; Boc = CC(C)(C)OC(=O)*; OBn = c1ccc(CO*)cc1
# How the values were obtained:
# Experiment in all cases: NCI-60 cell line screen, 48 h
# MCF7 breast = system: MCF7 breast
# SK-MEL-5 melanoma = system: SK-MEL-5 melanoma
# M14 melanoma = system: M14 melanoma
# DU-145 prostate = system: DU-145 prostate
# SR leukemia = system: SR leukemia
# A549 NSCLC = system: A549 NSCLC
# OVCAR-8 ovarian = system: OVCAR-8 ovarian
# UACC-257 melanoma = system: UACC-257 melanoma
# PC-3 prostate = system: PC-3 prostate
# TK-10 renal = system: TK-10 renal
# HL-60(TB) leukemia = system: HL-60(TB) leukemia
# IGROV1 ovarian = system: IGROV1 ovarian
SMILES,TGI (MCF7 breast),TGI (SK-MEL-5 melanoma),TGI (M14 melanoma),TGI (DU-145 prostate),TGI (SR leukemia),TGI (A549 NSCLC),TGI (OVCAR-8 ovarian),TGI (UACC-257 melanoma),TGI (PC-3 prostate),TGI (TK-10 renal),TGI (HL-60(TB) leukemia),TGI (IGROV1 ovarian),GI50 (MCF7 breast),GI50 (SK-MEL-5 melanoma),GI50 (DU-145 prostate),GI50 (SR leukemia),GI50 (UACC-257 melanoma),GI50 (TK-10 renal),GI50 (HL-60(TB) leukemia),GI50 (IGROV1 ovarian)
CC1=CCC[C@@](C)(O)[C@@H]2C[C@H]3C(CSc4ccccc4)C(=O)O[C@H]3[C@@H](O2)[C@H](C)CCC1 (stereo partly specified),29.4 µM,38.3 µM,26.9 µM,76.6 µM,> 100 µM,27.1 µM,32.4 µM,39.3 µM,22.2 µM,33.5 µM,> 100 µM,85.1 µM,,,,,,,,
Cc1ccc(S(=O)(=O)NC(=O)NCC(=O)NCC(=O)O)cc1,> 100 µM,> 100 µM,> 100 µM,> 100 µM,> 100 µM,> 100 µM,> 100 µM,> 100 µM,> 100 µM,> 100 µM,> 100 µM,> 100 µM,,,,,,,,
CC(C)(C)OC(=O)NC(Cc1ccc([N+](=O)[O-])cc1)C(=O)NCC(=O)OCc1ccccc1 (stereo unspecified) (Boc-[ξPhe(4-NO2)]-Gly-OBn),> 100 µM,46.2 µM,37.6 µM,81.8 µM,> 100 µM,> 100 µM,52.4 µM,,49.6 µM,> 100 µM,> 100 µM,> 100 µM,,,,,,,,
CC(=O)OCC1OC(n2c3c(c(-c4ccc(Cl)cc4)c(C#N)c2=S)C(=O)CC(C)(C)C3)C(OC(C)=O)C(OC(C)=O)C1OC(C)=O (stereo unspecified),> 95.3 µM,48.2 µM,> 100 µM,> 100 µM,> 100 µM,> 100 µM,51.8 µM,42.8 µM,63.6 µM,> 100 µM,> 61.1 µM,> 100 µM,,,,,,,,
Cc1cnc2[nH]c(-c3ccc(F)cc3)cc(=O)c2c1,> 100 µM,> 100 µM,> 100 µM,> 100 µM,> 61.5 µM,> 100 µM,> 100 µM,> 100 µM,> 100 µM,> 100 µM,20.4 µM,> 100 µM,,,,,,,,
Cc1ccc(S(=O)(=O)[N-]C2C(=O)c3ccccc3C(=O)C2[n+]2cccc(C(N)=O)c2)cc1 (stereo unspecified),> 100 µM,> 100 µM,> 100 µM,> 100 µM,> 100 µM,> 100 µM,> 100 µM,> 100 µM,> 100 µM,> 100 µM,> 100 µM,> 100 µM,,,,,,,,
CN(C)CCOC1(Cc2ccc(Cl)cc2Cl)CCC(C(C)(C)C)CC1 (stereo unspecified),3.49 µM and 3.65 µM,3.07 µM and 3.61 µM,3.25 µM and 3.11 µM,5.91 µM and 6.45 µM,4.64 µM and 1.47 µM,5.85 µM and 4.22 µM,3.59 µM and 3.74 µM,3.75 µM and 3.24 µM,3.68 µM and 4.1 µM,4.99 µM and 2.75 µM,3.61 µM and 3.92 µM,6.33 µM and 3.25 µM,1.79 µM,2.05 µM,1.89 µM and 2.68 µM,1.87 µM,1.64 µM,2.02 µM,1.45 µM and 2.08 µM,2.38 µM
NC(C(F)(F)F)(C(F)(F)F)P(=O)(c1ccccc1)c1ccccc1,> 100 µM,> 100 µM,> 100 µM,> 100 µM,> 100 µM,> 100 µM,> 100 µM,> 100 µM,> 100 µM,> 100 µM,> 100 µM,> 100 µM,,,,,,,,
O=[N+]([O-])/C(Cl)=C(\Nc1ccccc1)C(Cl)=C(Cl)Cl,60.4 µM,47 µM,58.4 µM,> 100 µM,69.9 µM,95 µM,53.9 µM,> 100 µM,> 100 µM,> 100 µM,40.1 µM,79 µM,,,,,,,,
Cc1cc(S(=O)(=O)Nc2nc(N)nc(N3CCOCC3)n2)c(SCC(=O)O)cc1Cl,> 10 µM,> 10 µM,> 10 µM,> 10 µM,> 10 µM,> 10 µM,> 10 µM,> 10 µM,> 10 µM,> 10 µM,> 10 µM,> 10 µM,,,,,,,,
CC(C)C[C@H](NC(=O)CCc1ccccc1)B(O)O,> 100 µM,22.8 µM,24.7 µM,> 100 µM,9.8 µM,> 100 µM,46.2 µM,37.8 µM,> 100 µM,55.8 µM,8.8 µM,> 100 µM,,,,,,,,
COc1ccc(-n2c3c(c4cc(O)ccc42)C(=O)c2ccccc2C3=O)cc1,> 100 µM,> 100 µM,> 100 µM,> 100 µM,56.9 µM,> 100 µM,13.6 µM,> 100 µM,87.3 µM,31.1 µM,> 100 µM,30.8 µM,,,,,,,,
CC(NC(=O)/C(C#N)=C/c1ccc2[nH]ccc2c1)c1ccccc1 (stereo unspecified),56 µM,33 µM,37.2 µM,39.8 µM,83.7 µM,55.4 µM,48.8 µM,38.7 µM,39.3 µM,50.1 µM,54.8 µM,33.1 µM,,,,,,,,
c1ccc2[nH]c3[nH]c4[nH]c5ccccc5[nH]c4[nH]c3[nH]c2c1,> 100 µM,> 100 µM,> 100 µM,> 100 µM,> 100 µM,> 100 µM,> 100 µM,> 100 µM,> 100 µM,> 100 µM,> 100 µM,> 100 µM,,,,,,,,
C[C@@H]1C[C@@H](O)[C@@]2(O)C13CC(=O)OC(C3)[C@@H](C)[C@@]2(C)CO (stereo partly specified),> 100 µM,> 100 µM,> 100 µM,> 100 µM,> 100 µM,> 100 µM,> 100 µM,> 100 µM,> 100 µM,> 100 µM,> 100 µM,> 100 µM,,,,,,,,
CC1(C)C=[N+]([O-])C(C)(C)N1,> 100 µM,> 100 µM,> 100 µM,> 100 µM,> 100 µM,> 100 µM,> 100 µM,> 100 µM,> 100 µM,> 100 µM,> 100 µM,> 100 µM,,,,,,,,
COc1ccc(C2CC(=O)Oc3ccccc3O2)cc1 (stereo unspecified),> 100 µM,> 100 µM,,> 100 µM,> 100 µM,> 100 µM,> 100 µM,> 100 µM,> 100 µM,> 100 µM,> 100 µM,> 100 µM,,,,,,,,
CCCC(=O)N/S(=N/S(=O)(=O)c1ccc(Cl)cc1)C(Cl)(Cl)Cl (stereo unspecified),> 100 µM,> 100 µM,> 100 µM,> 100 µM,> 100 µM,> 100 µM,> 100 µM,,> 100 µM,> 100 µM,> 100 µM,> 100 µM,,,,,,,,
COc1cccc(-c2cccc(SC)n2)n1,> 100 µM,44 µM,> 100 µM,> 100 µM,55.5 µM,> 100 µM,> 100 µM,98.9 µM,> 100 µM,> 100 µM,31 µM,> 100 µM,,,,,,,,
COc1cc(/C=C2/SC(c3ccccc3)N(c3ccc(Cl)cc3)C2=O)cc(OC)c1OC (stereo unspecified),> 100 µM,,> 63.3 µM,> 100 µM,> 100 µM,> 100 µM,> 100 µM,> 100 µM,> 100 µM,> 100 µM,> 100 µM,> 100 µM,,,,,,,,
COC(=O)/C(C#N)=C1\NC(=O)CC(c2ccccc2)C1C#N (stereo unspecified),> 100 µM,> 100 µM,> 100 µM,> 100 µM,> 100 µM,> 100 µM,> 100 µM,> 100 µM,> 100 µM,> 100 µM,> 100 µM,> 100 µM,,,,,,,,
CS(=O)(=O)c1[nH]nc2[nH]c(=O)[nH]c(=O)c12,> 10 µM,> 10 µM,> 10 µM,> 10 µM,> 10 µM,> 10 µM,> 10 µM,> 10 µM,> 10 µM,> 10 µM,> 10 µM,> 10 µM,,,,,,,,
CC1(C)OC(=O)C(C)(C)OC1=O,> 100 µM,> 100 µM,> 100 µM,> 100 µM,> 100 µM,> 100 µM,> 100 µM,> 100 µM,> 100 µM,> 100 µM,> 100 µM,> 100 µM,,,,,,,,
COC1C=C(NCC2(CO)CCC2)NC(N)=N1 (stereo unspecified),> 100 µM,> 100 µM,> 100 µM,> 100 µM,> 100 µM,> 100 µM,> 100 µM,> 100 µM,> 100 µM,,> 100 µM,> 100 µM,,,,,,,,
C[C@]12CC(c3ccccc3O1)C(C#N)C(=O)N2 (stereo partly specified),> 100 µM,> 100 µM,> 100 µM,> 100 µM,> 100 µM,> 100 µM,> 100 µM,> 100 µM,> 100 µM,,> 100 µM,> 100 µM,,,,,,,,
c1ccc([C@@H]2N[C@@]3(CO[Si](c4ccccc4)(c4ccccc4)c4ccccc4)CC[C@H]4CN[C@@H]2[C@H]43)cc1,11.5 µM,19.2 µM,17.4 µM,21.8 µM,> 100 µM,26.1 µM,28.7 µM,27.5 µM,21.3 µM,30.5 µM,21.3 µM,26.7 µM,,,,,,,,
CC(=O)O[C@H]1C(=O)[C@@]2(C)[C@H]([C@H](OC(=O)c3ccc([N+](=O)[O-])cc3)[C@]3(O)C[C@H](OC(=O)[C@H](O)[C@@H](NC(=O)c4ccccc4)c4ccccc4)C(C)=C1C3(C)C)[C@]1(OC(C)=O)CO[C@@H]1C[C@@H]2O,> 25 µM,> 25 µM,> 25 µM,> 25 µM,> 25 µM,> 25 µM,> 25 µM,> 25 µM,> 25 µM,> 25 µM,> 25 µM,> 25 µM,,,,,,,,
